From patent US12077483B2, “Modified amine lipids” (Intellia Therapeutics, Inc., priority 2018, dated 2024)

Legend:
[1] = pKa of amine lipid by TNS fluorescence; format: physicochemical; conditions: probe TNS (6-(p-toluidino)-2-naphthalenesulfonic acid sodium salt), unformulated amine lipid in ethanol, sodium phosphate buffers -9.0
Procedure: The pKa of each amine lipid was determined according to the method in Jayaraman, et al. (Angewandte Chemie, 2012) with the following adaptations. The pKa was determined for unformulated amine lipid in ethanol. Lipid stock solutions (2.94 mM) were diluted into Sodium Phosphate Buffers (0.1 M, Boston Bioproducts) of different pH (pH-range: 4.5-9.0) yielding a final lipid concentration of approx. 100 μM. The test samples were supplemented with TNS {6-(p-Toluidino)-2-naphthalenesulfonic acid sodium salt}, incubated and the fluorescence intensity was measured using excitation and emission wavelengths of 321 nm and 448 nm, respectively. The recorded data were normalized and the respective pKa values were derived from sigmoidal fitting.

[2] = LNP average particle size and polydispersity by dynamic light scattering; format: physicochemical; conditions: LNP with the compound as amine lipid
Source text: The LNPs have a size of about 1 to about 1,000 nm, about 10 to about 500 nm, about 20 to about 500 nm, in a sub-embodiment about 50 to about 400 nm, in a sub-embodiment about 50 to about 300 nm, in a sub-embodiment about 50 to about 200 nm, and in a sub-embodiment about 50 to about 150 nm, and in another sub-embodiment about 60 to about 120 nm. Preferably, the LNPs have a size from about 60 nm to about 100 nm. The average sizes (diameters) of the fully formed LNP, may be measured by dynamic light scattering on a Malvern Zetasizer. The LNP sample is diluted in phosphate buffered saline (PBS) so that the count rate is approximately 200-400 kcps. The data is presented as a weighted average of the intensity measure.
In some embodiments, the LNPs have a size of about 75 to about 120 nm. In some embodiments, the LNPs have a size of about 75 to about 100 nm. Unless indicated otherwise, all sizes referred to herein are the average sizes (diameters) of the fully formed nanoparticles, as measured by dynamic light scattering on a Malvern Zetasizer. The nanoparticle sample is diluted in phosphate buffered saline (PBS) so that the count rate is approximately 200-400 kcps. The data is presented as a weighted-average of the intensity measure (Z-average diameter).
Dynamic Light Scattering (“DLS”) is used to characterize the polydispersity index (“pdi”) and size of the LNPs of the present disclosure. DLS measures the scattering of light that results from subjecting a sample to a light source. PDI, as determined from DLS measurements, represents the distribution of particle size (around the mean particle size) in a population, with a perfectly uniform population having a PDI of zero. Electropheretic light scattering is used to characterize the surface charge of the LNP at a specified pH. The surface charge, or the zeta potential, is a measure of the magnitude of electrostatic repulsion/attraction between particles in the LNP suspension. Asymmetric-Flow Field Flow Fractionation—Multi-Angle Light Scattering (AF4-MALS) is used to separate particles in the composition by hydrodynamic radius and then measure the molecular weights, hydrodynamic radii and root mean square radii of the fractionated particles. […] Nanoparticle tracking analysis (NTA, Malvern Nanosight) can be used to determine particle size distribution as well as particle concentration. LNP samples are diluted appropriately and injected onto a microscope slide. A camera records the scattered light as the particles are slowly infused through field of view. After the movie is captured, the Nanoparticle Tracking Analysis processes the movie by tracking pixels and calculating a diffusion coefficient. This diffusion coefficient can be translated into the hydrodynamic radius of the particle. The instrument also counts the number of individual particles counted in the analysis to give particle concentration.
LNP compositions are analyzed for average particle size, polydispersity index (pdi), total RNA content, encapsulation efficiency of RNA, and zeta potential. LNP compositions may be further characterized by lipid analysis, AF4-MALS, NTA, and/or cryo-EM. Average particle size and polydispersity are measured by dynamic light scattering (DLS) using a Malvern Zetasizer DLS instrument. LNP samples were diluted with PBS buffer prior to being measured by DLS. Z-average diameter which is an intensity-based measurement of average particle size was reported along with number average diameter and pdi. A Malvern Zetasizer instrument is also used to measure the zeta potential of the LNP. Samples are diluted 1:17 (50 μL into 800 μL) in 0.1×PBS, pH 7.4 prior to measurement.

[3] = RNA encapsulation efficiency of LNP (Ribogreen fluorescence assay); format: physicochemical; conditions: LNP with the compound as amine lipid
Procedure: A fluorescence-based assay (Ribogreen®, ThermoFisher Scientific) is used to determine total RNA concentration and free RNA. Encapsulation efficiency is calculated as (Total RNA—Free RNA)/Total RNA. LNP samples are diluted appropriately with 1× TE buffer containing 0.2% Triton-X 100 to determine total RNA or 1× TE buffer to determine free RNA. Standard curves are prepared by utilizing the starting RNA solution used to make the compositions and diluted in 1× TE buffer+/−0.2% Triton-X 100. Diluted RiboGreen® dye (according to the manufacturer's instructions) is then added to each of the standards and samples and allowed to incubate for approximately 10 minutes at room temperature, in the absence of light. A SpectraMax M5 Microplate Reader (Molecular Devices) is used to read the samples with excitation, auto cutoff and emission wavelengths set to 488 nm, 515 nm, and 525 nm respectively. Total RNA and free RNA are determined from the appropriate standard curves.
Encapsulation efficiency is calculated as (Total RNA−Free RNA)/Total RNA. The same procedure may be used for determining the encapsulation efficiency of a DNA-based cargo component. For single-strand DNA, Oligreen Dye may be used and for double-strand DNA, Picogreen Dye.

[4] = tested on: mouse TTR; assay: Serum TTR ELISA in mice after LNP delivery; format: in vivo; conditions: mouse serum, relative to TSS control of same experiment
Procedure: For studies measuring in vivo editing in liver, CD-1 female mice were dosed at 0.1 mpk unless otherwise noted. Animals were euthanized at 6 or 7 days by exsanguinationvia cardiac puncture under isoflourane anesthesia. Liver tissue was collected from each animal for DNA extraction and analysis. Blood was collected into serum separator tubes or into tubes containing buffered sodium citrate for plasma as described herein. Cohorts of mice were measured for editing by Next-Generation Sequencing (NGS).
Blood was collected and the serum was isolated as indicated. The total mouse TTR serum levels were determined using a Mouse Prealbumin (Transthyretin) ELISA Kit (Aviva Systems Biology, Cat. OKIA00111). Briefly, sera were serial diluted with kit sample diluent, e.g. to a final dilution of 10,000-fold and/or 2,500-fold. The diluted sample was then added to the ELISA plates and the assay was then carried out according to directions. Serum TTR data from treatment groups are expressed as a percentage of vehicle control levels.

[5] = Expt. 1, composition ratio (mol %) 50/9/38/3 for Cmpnd 49, 50/10/38.5/1.5 for the others
[6] = Expt. 8, composition ratio (mol %) 50/9/38/3 for Cmpnd 49, 50/10/38.5/1.5 for the others
[7] = Expt. 7, composition ratio (mol %) 50/9/38/3 for Cmpnd 49, 50/10/38.5/1.5 for the others
[8] = Expt. 2, composition ratio (mol %) 50/9/39.5/3 for Cmpnd 49, 50/9/39.5/1.5 for the others

| SMILES | pKa [1] | Num Ave Size (nm) [2, 5] | PDI [2, 5] | Z-Ave Size (nm) [2, 5] | Encapsulation (%) [3, 5] | Serum TTR % TSS ([4]; dose 0.1 mpk) | Serum TTR % TSS ([4]; dose 0.03 mpk) | also measured |
| --- | --- | --- | --- | --- | --- | --- | --- | --- |
| CCCCCCCCCCCOC(=O)CCCCCCCC(=O)OCC(COC(=O)CCCCCCCC(=O)OCCCCCCCCCCC)OC(=O)CCC(CCCCCCCC)OC(=O)NCCN(C)CC (centres unmarked) [Compound 60, O′1,O1-(2-((4-(((2-(ethyl(methyl)amino)ethyl)carbamoyl)oxy)dodecanoyl)oxy)propane-1,3-diyl) 9,9′-diundecyl di(nonanedioate)] | 6.22 | 79.57 nm | 0.07 | 103.40 nm | 97% | 60.51 % TSS |  |  |
| CCCCCCCCCCCOC(=O)CCCCCCCC(=O)OCC(COC(=O)CCCCCCCC(=O)OCCCCCCCCCCC)OC(=O)CCCC(CCCCCCCC)OC(=O)NCCN(C)CC (centres unmarked) [Compound 61, O′1,O1-(2-((5-(((2-(ethyl(methyl)amino)ethyl)carbamoyl)oxy)tridecanoyl)oxy)propane-1,3-diyl) 9,9′-diundecyl di(nonanedioate)] | 6.29 | 79.7 nm | 0.06 | 102.00 nm | 97% | 81.48 % TSS |  |  |
| CCCCC/C=C\C/C=C\CCCCCCCC(=O)OCC(COC(=O)CCCCCCCC(=O)OCCCCCCCCCCC)OC(=O)CC(CCCCCCCC)OC(=O)NCCN(C)CC (centres unmarked) [Compound 62, 1-(3-methyl-13-((((9Z,12Z)-octadeca-9,12-dienoyl)oxy)methyl)-9-octyl-7,11-dioxo-8,12-dioxa-3,6-diazatetradecan-14-yl) 9-undecyl nonanedioate] | 6.32 | 87.26 nm | 0.04 | 106.40 nm | 97% | 57.89 % TSS |  |  |
| CCCCC/C=C\C/C=C\CCCCCCCC(=O)OCC(COC(=O)CCCCCCCC(=O)OCCCCCCCCCCC)OC(=O)CCC(CCCCCCCC)OC(=O)NCCN(C)CC (centres unmarked) [Compound 63, 1-(3-methyl-14-((((9Z,12Z)-octadeca-9,12-dienoyl)oxy)methyl)-9-octyl-7,12-dioxo-8,13-dioxa-3,6-diazapentadecan-15-yl) 9-undecyl nonanedioate] | 6.32 | 82.18 nm | 0.04 | 106.00 nm | 98% | 83.86 % TSS |  |  |
| CCCCC/C=C\C/C=C\CCCCCCCC(=O)OCC(COC(=O)CCCCCCCC(=O)OCCCCCCCCCCC)OC(=O)CCCC(CCCCCCCC)OC(=O)NCCN(C)CC (centres unmarked) [Compound 64, 1-(3-methyl-15-((((9Z,12Z)-octadeca-9,12-dienoyl)oxy)methyl)-9-octyl-7,13-dioxo-8,14-dioxa-3,6-diazahexadecan-16-yl) 9-undecyl nonanedioate] | 6.3 | 86.19 nm | 0.02 | 106.40 nm | 97% | 85.39 % TSS |  |  |
| CCCCC/C=C\C/C=C\CCCCCCCC(=O)OCC(COC(=O)CCCCCCC/C=C\C/C=C\CCCCC)OC(=O)CCC(CCCCCCCCCC)OC(=O)NCC1CCCN1C (centres unmarked) [Compound 65, 2-((4-((((1-methylpyrrolidin-2-yl)methyl)carbamoyl)oxy)tetradecanoyl)oxy)propane-1,3-diyl (9Z,9′Z,12Z,12′Z)-bis(octadeca-9,12-dienoate)] | 6.37 |  |  |  |  | 99.22 % TSS | 119.84 % TSS | Num Ave Size (nm) [2, 6]: 52.04 nm; PDI [2, 6]: 0.056; Z-Ave Size (nm) [2, 6]: 69.67 nm; Encapsulation (%) [3, 6]: 99% |
| CCCCC/C=C\C/C=C\CCCCCCCC(=O)OCC(COC(=O)CCCCCCC/C=C\C/C=C\CCCCC)OC(=O)CCC(CCCCCCCCCC)OC(=O)OCCCN1CCCC1 (centres unmarked) [Compound 66, 2-((4-(((3-(pyrrolidin-1-yl)propoxy)carbonyl)oxy)tetradecanoyl)oxy)propane-1,3-diyl (9Z,9′Z,12Z,12′Z)-bis(octadeca-9,12-dienoate)] | 6.15 |  |  |  |  | 19.674 % TSS | 54.682 % TSS | Num Ave Size (nm) [2, 7]: 65.07 nm; PDI [2, 7]: 0.035; Z-Ave Size (nm) [2, 7]: 79.79 nm; Encapsulation (%) [3, 7]: 98% |
| CCCCC/C=C\C/C=C\CCCCCCCC(=O)OCC(COC(=O)CCCCCCC/C=C\C/C=C\CCCCC)OC(=O)CCC(CCCC)OC(=O)NCC1CCCN1C (centres unmarked) [Compound 67, 2-((4-((((1-methylpyrrolidin-2-yl)methyl)carbamoyl)oxy)octanoyl)oxy)propane-1,3-diyl (9Z,9′Z,12Z,12′Z)-bis(octadeca-9,12-dienoate)] | 6.43 |  |  |  |  |  | 65.41 % TSS | Num Ave Size (nm) [2, 8]: 82.14 nm; PDI [2, 8]: 0.043; Z-Ave Size (nm) [2, 8]: 102.20 nm; Encapsulation (%) [3, 8]: 99% |
| CCCCC/C=C\C/C=C\CCCCCCCC(=O)OCC(COC(=O)CCCCCCC/C=C\C/C=C\CCCCC)OC(=O)CCC(CCCC)OC(=O)OCCCN1CCCC1 (centres unmarked) [Compound 68, 2-((4-(((3-(pyrrolidin-1-yl)propoxy)carbonyl)oxy)octanoyl)oxy)propane-1,3-diyl (9Z,9′Z,12Z,12′Z)-bis(octadeca-9,12-dienoate)] | 6.32 |  |  |  |  |  | 68.58 % TSS | Num Ave Size (nm) [2, 8]: 100.4 nm; PDI [2, 8]: 0.051; Z-Ave Size (nm) [2, 8]: 122.30 nm; Encapsulation (%) [3, 8]: 99% |
